We go through 8 compounds from US20250127907A1, “PARP INHIBITORS” (Stablix, Inc., priority 2023, published 2025).

One assay concerns MDA-MB-436 cells. Nature of the assay: Cell proliferation assay (MDA-MB-436). The class given is cell-based. Conditions: Homo sapiens, 168 h, 7 days. Here is the method: (§1) Cells are counted, diluted to desired density and 40 μL of cell suspension is added into each 384-well tissue-culture treated plates. Plates are incubated in Tissue Culture incubator at 37° C./5% C02 overnight.
(§2) Next day, 40 nl test compounds that are prepared from source plates are transferred to the seeded cells from overnight. Plates are incubated at 37° C./5% C02 for a total of 7 days. After 7-day incubation, plates are equilibrated to room temperature and 30 ul of Cell Counting-Lite is added to each well for a 30 min incubation followed by reading on EnVision.
(§3) The letter codes for the cell proliferation assay in A2780, HCC1806, and MDA-MB-436 cells include: A (<10 nM), B (>10-100 nM), C (>100-1000 nM), D (>1000-10000 nM), E (>10000 nM), and “-” is not tested.

In assay [1] the target is T1, PARP1 (Homo sapiens, UniProt P09874). The assay can be described thus: PARP trapping assay in U2OS cells. On the set-up: endogenous in cells; host or cells: U2OS. The class given is cell-based. Conditions: U2OS cells, MMS, 4 hrs; read-out: PARP Trapping (U2OS). How it is done: U2OS cells are seeded at 15,000 cells/well in 90 ul medium and incubated in the TC incubator for overnight.
Next day, test compounds are prepared in a source plate along with addition of DNA damage reagent MMS simultaneously and 10 ul of the diluted mixture is added to the cell plate and incubated for 4 hrs under T/C conditions.
After 4 hrs, following aspiration and washing, add 100 ul of cold cytoskeleton removal buffer (0.5% Triton X-100) and incubated for 10 min. At the end of incubation, slowly the buffer is removed, and cells are fixed with ice cold MeOH for 15 min at −20C. Followed by wash steps, cells are blocked with 1×PBS/3% BSA/0.05% Tween for 1 h at room temperature.
Cells are stained with anti PARP1 antibody (abeam ab227244, 1:1000), in 1×PBS/1% BSA overnight at 4C.
Wash and add DAPI, scan cells in Celigo.
Data Analysis: DAPI staining is used to segment nuclei and AF488 fluorescence intensity per nucleus is measured.
(§4) The letter codes for the PARP1-enzyme assay include: A (<1 nM), B (>1-10 nM), C (>10-100 nM), D (>100-1000 nM), E (>1000 nM), and “-” is not tested. The letter codes for the PARP trapping assay, and parylation assay include: A (<10 nM), B (>10-100 nM), C (>100-1000 nM), […], E (>10000 nM), and “-” is not tested.
Target sequence in this assay (P09874 whole entry): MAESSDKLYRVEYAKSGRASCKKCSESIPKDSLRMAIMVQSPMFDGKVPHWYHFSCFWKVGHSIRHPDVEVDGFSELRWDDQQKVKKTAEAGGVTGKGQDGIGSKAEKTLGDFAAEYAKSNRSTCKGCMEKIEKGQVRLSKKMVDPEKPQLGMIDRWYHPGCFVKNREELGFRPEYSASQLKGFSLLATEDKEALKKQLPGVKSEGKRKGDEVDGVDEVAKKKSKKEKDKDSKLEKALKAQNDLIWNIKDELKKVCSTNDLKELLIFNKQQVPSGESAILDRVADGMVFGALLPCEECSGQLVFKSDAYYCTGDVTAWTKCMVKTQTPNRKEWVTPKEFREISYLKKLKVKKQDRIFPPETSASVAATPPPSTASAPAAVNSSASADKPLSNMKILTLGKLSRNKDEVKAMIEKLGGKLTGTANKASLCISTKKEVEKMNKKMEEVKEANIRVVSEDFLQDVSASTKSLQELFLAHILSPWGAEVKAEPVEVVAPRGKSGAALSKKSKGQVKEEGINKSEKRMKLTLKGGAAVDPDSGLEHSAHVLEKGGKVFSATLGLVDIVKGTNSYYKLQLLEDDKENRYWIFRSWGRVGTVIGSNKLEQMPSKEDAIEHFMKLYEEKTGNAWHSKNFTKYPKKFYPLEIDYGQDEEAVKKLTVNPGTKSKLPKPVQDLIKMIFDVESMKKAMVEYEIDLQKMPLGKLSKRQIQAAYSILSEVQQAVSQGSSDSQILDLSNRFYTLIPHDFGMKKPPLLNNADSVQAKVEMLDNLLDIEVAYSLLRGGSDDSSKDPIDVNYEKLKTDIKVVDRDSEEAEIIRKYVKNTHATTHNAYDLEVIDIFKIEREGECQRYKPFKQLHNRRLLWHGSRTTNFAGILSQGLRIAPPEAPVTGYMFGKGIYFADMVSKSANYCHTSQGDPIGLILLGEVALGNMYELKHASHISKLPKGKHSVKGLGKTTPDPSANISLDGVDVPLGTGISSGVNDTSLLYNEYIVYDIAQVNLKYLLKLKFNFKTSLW

Assay [2] addresses T1, PARP1. The assay can be described thus: PARP1-enzyme assay (NAD/NADH-Glo biochemical assay). As to conditions: recombinant PARP1, NAD+ consumption. Here is the method:
The PARP enzyme catalyzes the transfer of ADP-Ribose from NAD+ onto PAR chains/histone substrates. The catalytic cycle is monitored indirectly with the NAD/NADH-Glo Assay kit from Promega. […] NAD+ consumed is determined by comparison to the no enzyme control.
• Recombinant PARP1 • NAD+/NAHD-Glow assay Kit • Activated DNA, 10 μg/mL • NAD+(Nicotinamide Adenine Dinucleotide), 500 nM • Protein substrate for PARP1: Core Histone from chicken, 10 μg/mL
as §4
Target sequence in this assay (P09874 whole entry, species assumed): as the sequence (P09874 whole entry) above

Another assay concerns A2780 cells. Nature of the assay: Cell proliferation assay (A2780). The class given is cell-based. As to conditions: Homo sapiens, 168 h, 7 days. Here is the method:
as §1, §2, §3

Assay [3] concerns Poly/Mono-ADP Ribose in U2OS cells. Nature of the assay: PAR in cell western assay (parylation) in U2OS cells. The class given is cell-based. As to conditions: Homo sapiens; U2OS cells, 6 hrs, 2 mM H2O2; read-out: Parylation (U2OS). How it is done: U2OS cells are seeded at 2667 cells per well in 24 ul medium into poly-D lysine-coated 384 well plate and incubated in the TC incubator for O/N
The next day, test comps are diluted in a source plate and 6 μL of the diluted comp is added to the cell plate; mixed well and incubated for 6 hrs. DNA damage is induced with 2 mM H2O2 for 10 min. After discarding the medium, cells are fixed in ice cold Methanol at for 20 min at −20C. After a wash step at room temperature, cells are permeabilized with 0.05% NP-40 in PBS for 10 min, followed by wash steps. Cells are blocked with 1% BSA, at room temperature for 1 hr. Cells are stained with anti mono/polyADP ribose antibody (E6F6A, Cell signaling, 1:5000) in 1×PBS/1% BSA/0.05% Tween o/n at 4C.
Next Day, cells are washed and incubated with anti-Rabbit 800CV (Licor antibody, 1:500) and CellTag 700 (Licor, 1:800) in 1×PBS/1% BSA/0.05% Tween for 1 h. After washing, plates are scanned using LICOR and are quantified.
Parylation inhibition is reported as % control inhibition.
as §4

The test system of a further assay is HCC1806 cells. The assay can be described thus: Cell proliferation assay (HCC1806). The assay is classed as cell-based. Conditions: Homo sapiens, 168 h, 7 days. How it is done: as §1, §2, §3

Bounds are passed on as bounds.

On to `CCc1cccc(-c2cnc(C(=O)N3CCC(CN4CCN(CC(=O)N5CCN(C(=O)c6cc(Cc7n[nH]c(=O)c8ccccc78)ccc6F)CC5)CC4)CC3)c(NC(=O)CNCc3ccc(F)cc3F)c2)c1` [Compound I-331], for which the IC50 in the assay on MDA-MB-436 cells was 10 to 100 nM; at PARP1 [1] it was 100 to 1000 nM; on PARP1 [2] it was less than 1 nM; with A2780 cells it was 10 to 100 nM; in assay [3], 10 to 100 nM.

Regarding `O=C(N[C@@H](C(=O)N1CCN(CC2CCN(CC(=O)N3CCN(C(=O)c4cc(Cc5n[nH]c(=O)c6ccccc56)ccc4F)CC3)CC2)CC1)C1CCCCC1)c1cccc([C@H]2CCCN(C(=O)CNCc3ccc(F)cc3F)C2)c1` [Compound I-294], the IC50 was 10 to 100 nM with MDA-MB-436 cells; 100 to 1000 nM on PARP1 [1]; 1 to 10 nM at PARP1 [2]; 100 to 1000 nM in the assay with A2780 cells; 10 to 100 nM in assay [3].

`CC1(OC2CCN(CC(=O)N3CCN(C(=O)c4cc(Cc5n[nH]c(=O)c6ccccc56)ccc4F)CC3)CC2)CCN(C(=O)[C@H](NC(=O)c2cccc(C3CCCN(C(=O)C4(C)CC4)C3)c2F)C2CCCCC2)CC1` (stereo partly shown) [Compound I-893]: the IC50 with HCC1806 cells fell in the range of 100 to 1000 nM; with MDA-MB-436 cells it was 10 to 100 nM; at PARP1 [1] it was 10 to 100 nM; in the assay on A2780 cells, 100 to 1000 nM; in assay [3], 100 to 1000 nM.

Turning to `CC(C)(C)OC(=O)N[C@@H](C(=O)N1C[C@H]2CC[C@@H](C1)[C@H]2OC1CCN(CC(=O)N2CCN(C(=O)c3cc(Cc4n[nH]c(=O)c5ccccc45)ccc3F)CC2)CC1)C1CCCCC1` [Compound I-990], the IC50 in the assay on HCC1806 cells was 10 to 100 nM; in the assay with MDA-MB-436 cells, less than 10 nM; at PARP1 [1] it was 10 to 100 nM; in the assay on A2780 cells, 10 to 100 nM; in assay [3] it was 10 to 100 nM.

For `CCc1cccc(-c2cnc(C(=O)NC34CCC(CN5CCN(CC(=O)N6CCN(C(=O)c7cc(Cc8n[nH]c(=O)c9ccccc89)ccc7F)CC6)CC5)(CC3)OC4)c(NC(C)=O)c2)c1` [Compound I-469], the IC50 in the assay on HCC1806 cells is 10 to 100 nM; in the assay with MDA-MB-436 cells it was less than 10 nM; at PARP1 [1] it was 10 to 100 nM; with A2780 cells it was 10 to 100 nM; in assay [3], 10 to 100 nM.

For `CC(C)(F)C(=O)N1CCCC(c2cccc(C(=O)N[C@@H](C(=O)N3CCN(CC4CCN(CC(=O)N5CCN(C(=O)c6cc(Cc7n[nH]c(=O)c8ccccc78)ccc6F)CC5)CC4)CC3)C3CCCCC3)c2)C1` (stereo partly shown) [Compound I-528], the IC50 is 100 to 1000 nM in the assay with HCC1806 cells; less than 10 nM in the assay with MDA-MB-436 cells; 100 to 1000 nM on PARP1 [1]; 10 to 100 nM in the assay with A2780 cells; 10 to 100 nM in assay [3].

`CCc1cccc(-c2cnc(C(=O)NC34CCC(CN5CCN(CC(=O)N6CCN(C(=O)c7cc(Cc8n[nH]c(=O)c9ccccc89)ccc7F)CC6)CC5)(CC3)OC4)c(N)c2)c1` [Compound I-470]: the IC50 was 10 to 100 nM with HCC1806 cells; less than 10 nM in the assay on MDA-MB-436 cells; 10 to 100 nM at PARP1 [1]; 10 to 100 nM in the assay with A2780 cells; 100 to 1000 nM in assay [3].

Regarding `CC1(C(=O)N2CCC(c3cccc(C(=O)N[C@@H](C(=O)N4CCC(OC5CCN(CC(=O)N6CCN(C(=O)c7cc(Cc8n[nH]c(=O)c9ccccc89)ccc7F)CC6)CC5)CC4)C4CCCCC4)c3F)CC2)CC1` [Compound I-883], the IC50 with HCC1806 cells was 10 to 100 nM; in the assay with MDA-MB-436 cells, less than 10 nM; at PARP1 [1] it was 10 to 100 nM; in the assay with A2780 cells, 10 to 100 nM; in assay [3], 10 to 100 nM.
